The target of one test is sGC α1/β1 heterodimer (Homo sapiens (Human), UniProt Q02108+Q02153). The test can be described thus: Cell-based sGC functional assay (cyclic GMP assay for sGC activator: CASA assay). The conditions noted are these: CHO-K1/sGC cells; for Emax: CHO-K1, activity expressed as percentage of compound A (standard), read-out: % Activation; for EC50: inflection point, 4P fit, read-out: IP. An outline of the steps: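 CHO-K1 cells stably expressing sGC α1/β1 were pre-incubated with or without 1 μM DETA-NO (30 min, 25 °C), then exposed to compounds for 1 hr at 37 °C with 0.5 mM IBMX. Intracellular cGMP was read by HTRF and expressed as a percentage of a reference heme-dependent activator's maximum.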

Test [1] concerns the target human recombinant sGC enzyme (Homo sapiens (Human), UniProt Q02108+Q02153). The test can be described thus: Size Exclusion Chromatography (SEC) competition binding assay using [3H] Ex-77B as the radioligand. The conditions noted are these: [3H] Ex-77B radioligand, 24 hours at 37° C. An outline of the steps: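 Recombinant human sGC binding measured by competition against tritiated Ex-77B radioligand, with non-specific binding defined by 1 μM unlabeled Ex-77B.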

Regarding `Nc1nc(-c2nn(Cc3ccccc3F)c3ncccc23)nc2c1C(c1ccc(CCC(=O)O)cc1)(C1CC1)C(=O)N2` (stereo not drawn) [Example 148A, 3-(4-{4-amino-5-cyclopropyl-2-[1-(2-fluorobenzyl)-1H-pyrazolo[3,4-b]pyridin-3-yl]-6-oxo-6,7-dihydro 5H-pyrrolo[2,3-d]pyrimidin-5-yl}phenyl)propanoic acid], at sGC α1/β1 heterodimer, the Emax is 87.8% and the EC50 was found to be 238 nM. Also, the Ki in test [1] was 0.123 nM.

Take `CC(C)(Cc1csc([C@]2(C)C(=O)Nc3nc(-c4nn(Cc5cccc(F)c5)c5ncccc45)nc(N)c32)n1)C(=O)O` [Example 149A, (S)-3-(2-{4-amino-2-[1-(3-fluoro-benzyl)-1H-pyrazolo [3,4-b]pyridin-3-yl]-5-methyl-6-oxo-6,7-dihydro-5H-pyrrolo[2,3-d]pyrimidin-5-yl}-1,3-thiazol-4-yl)-2,2-dimethyl-propanoic acid]: at sGC α1/β1 heterodimer, the Emax was 103% and the EC50 is 111 nM. In test [1], the inhibition constant (Ki) worked out at 0.167 nM.

Turning to `CC(C)(Cc1coc(C2(C)C(=O)Nc3nc(-c4nn(Cc5cccc(F)c5)c5ncccc45)nc(N)c32)n1)C(=O)O` (stereo not drawn) [Example 150A, 3-(2-{4-amino-2-[1-(3-fluoro-benzyl)-1H-pyrazolo [3,4-b]pyridin-3-yl]-5-methyl-6-oxo-6,7-dihydro-5H-pyrrolo[2,3-d]pyrimidin-5-yl}-1,3-oxazol-4-yl)-2,2-dimethyl-propanoic acid], on sGC α1/β1 heterodimer, the Emax stood at 102% and the EC50 was 294 nM. Also, the Ki in test [1] is 0.096 nM.

As to `CC(C)(Cc1coc(C2(C)C(=O)Nc3nc(-c4nn(CC5CCCCC5)c5ncccc45)nc(N)c32)n1)C(=O)O` (stereo not drawn) [Example 152A, 3-(2-{4-amino-2-[1-(cyclohexyl-methyl)-1H-pyrazolo[3,4-b]pyridin-3-yl]-5-methyl-6-oxo-6,7-dihydro-5H-pyrrolo[2,3-d]pyrimidin-5-yl}-1,3-oxazol-4-yl)-2,2-dimethyl-propanoic acid], at sGC α1/β1 heterodimer, the Emax is 118% and the EC50 came to 120 nM. Also, the Ki in test [1] amounted to 0.031 nM.

With `CC(C)(Cc1coc(C2(C)C(=O)Nc3nc(-c4nn(CC5CCCC5)c5ncccc45)nc(N)c32)n1)C(=O)O` (stereo not drawn) [Example 154A, 3-(2-{4-amino-2-[1-(cyclopentyl-methyl)-1H-pyrazolo[3,4-b]pyridin-3-yl]-5-methyl-6-oxo-6,7-dihydro-5H-pyrrolo[2,3-d]pyrimidin-5-yl}-1,3-oxazol-4-yl)-2,2-dimethyl-propanoic acid], on sGC α1/β1 heterodimer, the Emax stood at 104% and the EC50 amounted to 577 nM. For the same molecule, in test [1], the Ki amounted to 0.091 nM.

Take `CC1(c2nc(-c3ccc(C(=O)O)cc3)cs2)C(=O)Nc2nc(-c3nn(CCC(F)(F)C(F)(F)F)c4cc(Cl)ccc34)nc(N)c21` (stereo not drawn) [Example 156A, 4-(2-{4-amino-2-[6-chloro-1-(3,3,4,4,4-penta-fluorobutyl)-1H-indazol-3-yl]-5-methyl-6-oxo-6,7-dihydro-5H-pyrrolo[2,3-d]pyrimidin-5-yl}-1,3-thiazol-4-yl)benzoic acid]: at sGC α1/β1 heterodimer, the Emax was determined as 93.5% and the EC50 came out at 161 nM. In test [1], the Ki was determined as 0.17 nM.

Regarding `CC1(c2ccc(/C=C/C(=O)O)cc2)C(=O)Nc2nc(-c3nn(CCC(F)(F)C(F)(F)F)c4cc(Cl)ccc34)nc(N)c21` (stereo not drawn) [Example 157A, (2E)-3-(4-{4-amino-2-[6-chloro-1-(3,3,4,4,4-penta-fluorobutyl)-1H-indazol-3-yl]-5-methyl-6-oxo-6,7-dihydro-5H-pyrrolo[2,3-d]pyrimidin-5-yl}phenyl)prop-2-enoic acid], at sGC α1/β1 heterodimer, the Emax is 143% and the EC50 stood at 185 nM. In addition, in test [1], the Ki amounted to 0.258 nM.

Regarding `Nc1nc(-c2nn(CCC(F)(F)C(F)(F)F)c3cc(Cl)ccc23)nc2c1C(c1ccc(CCC(=O)O)cc1)(C1CC1)C(=O)N2` (stereo not drawn) [Example 158A, 3-(4-{4-amino-2-[6-chloro-1-(3,3,4,4,4-penta-fluorobutyl)-1H-indazol-3-yl]-5-cyclopropyl-6-oxo-6,7-dihydro-5H-pyrrolo[2,3-d]pyrimidin-5-yl}phenyl)propanoic acid], at sGC α1/β1 heterodimer, the Emax was found to be 88.8% and the EC50 was determined as 353 nM. Further, the Ki in test [1] amounted to 0.864 nM.

In the case of `CC(C)(Cc1coc(C2(C)C(=O)Nc3nc(-c4nn(CC5CCCCC5)c5cc(Cl)ccc45)nc(N)c32)n1)C(=O)O` (stereo not drawn) [Example 159A, 3-(2-{4-amino-2-[6-chloro-1-(cyclohexylmethyl)-1H-indazol-3-yl]-5-methyl-6-oxo-6,7-dihydro-5H-pyrrolo[2,3-d]pyrimidin-5-yl}-1,3-oxazol-4-yl)-2,2-dimethyl-propanoic acid], at sGC α1/β1 heterodimer, the Emax was 113% and the EC50 is 221 nM. Also, the Ki in test [1] is 0.125 nM.

On to `CC(C)(Cc1coc(C2(C)C(=O)Nc3nc(-c4nn(CC5CCCC5)c5cc(Cl)ccc45)nc(N)c32)n1)C(=O)O` (stereo not drawn) [Example 161A, 3-(2-{4-amino-2-[6-chloro-1-(cyclopentylmethyl)-1H-indazol-3-yl]-5-methyl-6-oxo-6,7-dihydro-5H-pyrrolo[2,3-d]pyrimidin-5-yl}-1,3-oxazol-4-yl)-2,2-dimethyl-propanoic acid], for which, on sGC α1/β1 heterodimer, the Emax was 121% and the EC50 was determined as 291 nM. Further, the Ki in test [1] came to 0.081 nM.

As for `CC(C)(Cc1csc([C@]2(C)C(=O)Nc3nc(-c4nn(CC5CCCC5)c5cc(Cl)ccc45)nc(N)c32)n1)C(=O)O` [Example 162A, (S)-3-(2-{4-amino-2-[6-chloro-1-(cyclopentyl-methyl)-1H-indazol-3-yl]-5-methyl-6-oxo-6,7-dihydro-5H-pyrrolo[2,3-d]pyrimidin-5-yl}-1,3-thiazol-4-yl)-2,2-dimethyl-propanoic acid], on sGC α1/β1 heterodimer, the Emax amounted to 76.5% and the EC50 worked out at 69 nM. In test [1], the Ki turned out to be 0.15 nM.

For the molecule `CC1(c2nc(-c3ccc(C(=O)O)cc3)co2)C(=O)Nc2nc(-c3nn(Cc4ccccc4F)c4cc(Cl)ccc34)nc(N)c21` (stereo not drawn) [Example 164A, 4-(2-{4-amino-2-[6-chloro-1-(2-fluorobenzyl)-1H-indazol-3-yl]-5-methyl-6-oxo-6,7-dihydro-5H-pyrrolo[2,3-d]pyrimidin-5-yl}-1,3-oxazol-4-yl) benzoic acid], at sGC α1/β1 heterodimer, the Emax stood at 127% and the EC50 amounted to 439 nM. Also, in test [1], the Ki amounted to 0.099 nM.

Take `CC1(c2nc(-c3ccc(C(=O)O)cc3)cs2)C(=O)Nc2nc(-c3nn(Cc4ccccc4F)c4cc(Cl)ccc34)nc(N)c21` (stereo not drawn) [Example 165A, 4-(2-{4-amino-2-[6-chloro-1-(2-fluorobenzyl)-1H-indazol-3-yl]-5-methyl-6-oxo-6,7-dihydro-5H-pyrrolo[2,3-d]pyrimidin-5-yl}-1,3-thiazol-4-yl) benzoic acid]: on sGC α1/β1 heterodimer, the Emax came out at 110% and the EC50 was 48 nM. Further, the Ki in test [1] came out at 0.081 nM.

For the molecule `CC(C)(CCc1coc(C2(C)C(=O)Nc3nc(-c4nn(Cc5ccccc5F)c5cc(Cl)ccc45)nc(N)c32)n1)C(=O)O` (stereo not drawn) [Example 167B, 4-(2-{4-amino-2-[6-chloro-1-(2-fluorobenzyl)-1H-indazol-3-yl]-5-methyl-6-oxo-6,7-dihydro-5H-pyrrolo[2,3-d]pyrimidin-5-yl}-1,3-oxazol-4-yl)-2,2-dimethyl-butanoic acid], at sGC α1/β1 heterodimer, the Emax was determined as 107% and the EC50 was 93 nM. The Ki in test [1] was determined as 0.07 nM.

For the molecule `CC1(c2nc3cc(C(=O)O)ccc3o2)C(=O)Nc2nc(-c3nn(Cc4ccccc4F)c4cc(Cl)ccc34)nc(N)c21` (stereo not drawn) [Example 168B, 2-{4-amino-2-[6-chloro-1-(2-fluorobenzyl)-1H-indazol-3-yl]-5-methyl-6-oxo-6,7-dihydro-5H-pyrrolo[2,3-d]pyrimidin-5-yl}-1,3-benzoxazole-5-carboxylic acid], at sGC α1/β1 heterodimer, the Emax was 141% and the EC50 was 207 nM. In test [1], the inhibitory constant (Ki) came out at 0.164 nM.

For `CC1(c2cccc(C(=O)O)c2)C(=O)Nc2nc(-c3nn(Cc4ccccc4F)c4cc(Cl)ccc34)nc(N)c21` (stereo not drawn) [Example 169B, 3-{4-amino-2-[6-chloro-1-(2-fluorobenzyl)-1H-indazol-3-yl]-5-methyl-6-oxo-6,7-dihydro-5H-pyrrolo[2,3-d]pyrimidin-5-yl} benzoic acid], at sGC α1/β1 heterodimer, the Emax was 90.3% and the EC50 came out at 159 nM. The Ki in test [1] was 0.104 nM.

Regarding `Cc1oc(C2(C)C(=O)Nc3nc(-c4nn(Cc5ccccc5F)c5cc(Cl)ccc45)nc(N)c32)nc1CC(C)(C)C(=O)O` (stereo not drawn) [Example 170B, 3-(2-{4-amino-2-[6-chloro-1-(2 fluorobenzyl)-1H-indazol-3-yl]-5-methyl-6-oxo-6,7-dihydro-5H-pyrrolo[2,3-d]pyrimidin-5-yl}-5-methyl-1,3-oxazol-4-yl)-2,2-dimethylpropanoic acid], at sGC α1/β1 heterodimer, the Emax is 130% and the EC50 is 655 nM. Besides, in test [1], the inhibition constant (Ki) was 0.118 nM.

In the case of `CC(C)(Cn1cc(C2(C)C(=O)Nc3nc(-c4nn(Cc5ccccc5F)c5cc(Cl)ccc45)nc(N)c32)cn1)C(=O)O` (stereo not drawn) [Example 171A, 3-(4-{4-amino-2-[6-chloro-1-(2-fluorobenzyl)-1H-indazol-3-yl]-5-methyl-6-oxo-6,7-dihydro-5H-pyrrolo[2,3-d]pyrimidin-5-yl}-1H-pyrazol-1-yl)-2,2-dimethyl-propanoic acid], on sGC α1/β1 heterodimer, the Emax stood at 135% and the EC50 was found to be 1220 nM. For the same molecule, the Ki in test [1] was determined as 0.094 nM.

For `CC(C)(Cc1coc(C2(C)C(=O)Nc3nc(-c4nn(Cc5ccc(F)cc5)c5cc(Cl)ccc45)nc(N)c32)n1)C(=O)O` (stereo not drawn) [Example 173A, 3-(2-{4-amino-2-[6-chloro-1-(4-fluorobenzyl)-1H-indazol-3-yl]-5-methyl-6-oxo-6,7-dihydro-5H-pyrrolo[2,3-d]pyrimidin-5-yl}-1,3-oxazol-4-yl)-2,2-dimethyl-propanoic acid], on sGC α1/β1 heterodimer, the Emax was found to be 83.4% and the EC50 turned out to be 557 nM. Also, in test [1], the Ki stood at 0.252 nM.

Source of the values: patent US10030027B2, “Soluble guanylate cyclase stimulators” (MERCK SHARP & DOHME CORP., priority 2015, dated 2018).
